From ChEMBL document CHEMBL2016493, “Design, synthesis, synergistic antimicrobial activity and cytotoxicity of 4-aryl substituted 3,4-dihydropyrimidinones of curcumin” (Bioorg Med Chem Lett, 2012)
The source made the active and inactive calls. The rule behind the calls is not given here.

What was measured:
Staphylococcus aureus [1] = experiment: Antibacterial activity against Staphylococcus aureus ATCC 11632 at 80 uM/ml after 24 hrs by kirby-bauer method; format: functional; details: ATCC 11632, 24 h, read-out: IZ
Trichoderma viride [2] = experiment: Antifungal activity against Trichoderma viride MTCC 1107 at 160 uM/ml after 48 hrs by paper disc diffusion method; format: functional; details: MTCC 1107, 48 h, read-out: IZ
Escherichia coli [3] = experiment: Antibacterial activity against Escherichia coli ATCC 35218 at 40 uM/ml after 24 hrs by kirby-bauer method; format: functional
Aspergillus flavus [4] = experiment: Antifungal activity against Aspergillus flavus MTCC 1021 at 40 uM/ml after 48 hrs by paper disc diffusion method; format: functional
Curvularia lunata [5] = experiment: Antifungal activity against Curvularia lunata MTCC 581 at 40 uM/ml after 48 hrs by paper disc diffusion method; format: functional; details: MTCC 581, 48 h, read-out: IZ
[6] = tested on: Burkholderia pseudomallei; experiment: Antibacterial activity against Burkholderia pseudomallei NTCC 10274 at 40 uM/ml after 24 hrs by kirby-bauer method; format: functional; details: NTCC 10274, 24 h, read-out: IZ
Staphylococcus aureus [7] = experiment: Antibacterial activity against Staphylococcus aureus ATCC 11632 at 20 uM/ml after 24 hrs by kirby-bauer method; format: functional; details: ATCC 11632, 24 h, read-out: IZ
Escherichia coli [8] = experiment: Antibacterial activity against Escherichia coli ATCC 35218 at 20 uM/ml after 24 hrs by kirby-bauer method; format: functional
Staphylococcus aureus [9] = experiment: Antibacterial activity against Staphylococcus aureus ATCC 11632 at 40 uM/ml after 24 hrs by kirby-bauer method; format: functional; details: ATCC 11632, 24 h, read-out: IZ
Aspergillus niger [10] = experiment: Antifungal activity against Aspergillus niger MTCC 1108 at 20 uM/ml after 48 hrs by paper disc diffusion method; format: functional
Salmonella typhimurium [11] = experiment: Antibacterial activity against Salmonella typhimurium ATCC 23564 at 160 uM/ml after 24 hrs by kirby-bauer method; format: functional, Salmonella enterica subsp. enterica serovar Typhimurium; details: Salmonella enterica, ATCC 23564, 24 h; read-out: IZ
Trichoderma viride [12] = experiment: Antifungal activity against Trichoderma viride MTCC 1107 at 40 uM/ml after 48 hrs by paper disc diffusion method; format: functional; details: MTCC 1107, 48 h, read-out: IZ
Trichoderma viride [13] = experiment: Antifungal activity against Trichoderma viride MTCC 1107 at 20 uM/ml after 48 hrs by paper disc diffusion method; format: functional
Salmonella typhimurium [14] = experiment: Antibacterial activity against Salmonella typhimurium ATCC 23564 at 40 uM/ml after 24 hrs by kirby-bauer method; format: functional, Salmonella enterica subsp. enterica serovar Typhimurium
Pseudomonas aeruginosa [15] = experiment: Antibacterial activity against Pseudomonas aeruginosa ATCC 15499 at 160 uM/ml after 24 hrs by kirby-bauer method; format: functional
[16] = tested on: Burkholderia pseudomallei; experiment: Antibacterial activity against Burkholderia pseudomallei NTCC 10274 at 20 uM/ml after 24 hrs by kirby-bauer method; format: functional
Aspergillus niger [17] = experiment: Antifungal activity against Aspergillus niger MTCC 1108 at 80 uM/ml after 48 hrs by paper disc diffusion method; format: functional
Aspergillus flavus [18] = experiment: Antifungal activity against Aspergillus flavus MTCC 1021 at 20 uM/ml after 48 hrs by paper disc diffusion method; format: functional
[19] = tested on: Burkholderia pseudomallei; experiment: Antibacterial activity against Burkholderia pseudomallei NTCC 10274 at 160 uM/ml after 24 hrs by kirby-bauer method; format: functional; details: NTCC 10274, 24 h, read-out: IZ
Aspergillus niger [20] = experiment: Antifungal activity against Aspergillus niger MTCC 1108 at 160 uM/ml after 48 hrs by paper disc diffusion method; format: functional; details: MTCC 1108, 48 h, read-out: IZ
Curvularia lunata [21] = experiment: Antifungal activity against Curvularia lunata MTCC 581 at 80 uM/ml after 48 hrs by paper disc diffusion method; format: functional; details: MTCC 581, 48 h, read-out: IZ
Aspergillus flavus [22] = experiment: Antifungal activity against Aspergillus flavus MTCC 1021 at 80 uM/ml after 48 hrs by paper disc diffusion method; format: functional
Aspergillus niger [23] = experiment: Antifungal activity against Aspergillus niger MTCC 1108 at 40 uM/ml after 48 hrs by paper disc diffusion method; format: functional
Staphylococcus aureus [24] = experiment: Antibacterial activity against Staphylococcus aureus ATCC 11632 at 160 uM/ml after 24 hrs by kirby-bauer method; format: functional; details: ATCC 11632, 24 h, read-out: IZ
[25] = tested on: Burkholderia pseudomallei; experiment: Antibacterial activity against Burkholderia pseudomallei NTCC 10274 at 80 uM/ml after 24 hrs by kirby-bauer method; format: functional; details: NTCC 10274, 24 h, read-out: IZ
Trichoderma viride [26] = experiment: Antifungal activity against Trichoderma viride MTCC 1107 at 80 uM/ml after 48 hrs by paper disc diffusion method; format: functional; details: MTCC 1107, 48 h, read-out: IZ
Escherichia coli [27] = experiment: Antibacterial activity against Escherichia coli ATCC 35218 at 80 uM/ml after 24 hrs by kirby-bauer method; format: functional; details: ATCC 35218, 24 h, read-out: IZ
Curvularia lunata [28] = experiment: Antifungal activity against Curvularia lunata MTCC 581 at 160 uM/ml after 48 hrs by paper disc diffusion method; format: functional; details: MTCC 581, 48 h, read-out: IZ
Escherichia coli [29] = experiment: Antibacterial activity against Escherichia coli ATCC 35218 at 160 uM/ml after 24 hrs by kirby-bauer method; format: functional; details: ATCC 35218, 24 h, read-out: IZ
Aspergillus flavus [30] = experiment: Antifungal activity against Aspergillus flavus MTCC 1021 at 160 uM/ml after 48 hrs by paper disc diffusion method; format: functional; details: MTCC 1021, 48 h, read-out: IZ
Salmonella typhimurium [31] = experiment: Antibacterial activity against Salmonella typhimurium ATCC 23564 at 80 uM/ml after 24 hrs by kirby-bauer method; format: functional, Salmonella enterica subsp. enterica serovar Typhimurium; details: Salmonella enterica, ATCC 23564, 24 h; read-out: IZ
Curvularia lunata [32] = experiment: Antifungal activity against Curvularia lunata MTCC 581 at 20 uM/ml after 48 hrs by paper disc diffusion method; format: functional
Salmonella typhimurium [33] = experiment: Antibacterial activity against Salmonella typhimurium ATCC 23564 at 20 uM/ml after 24 hrs by kirby-bauer method; format: functional, Salmonella enterica subsp. enterica serovar Typhimurium
QG-56 = experiment: Cytotoxicity against human QG56 cells after 48 hrs by MTT assay; format: functional, cell-based
Pseudomonas aeruginosa [34] = experiment: Antibacterial activity against Pseudomonas aeruginosa ATCC 15499 at 40 uM/ml after 24 hrs by kirby-bauer method; format: functional; details: ATCC 15499, 24 h, read-out: IZ
Pseudomonas aeruginosa [35] = experiment: Antibacterial activity against Pseudomonas aeruginosa ATCC 15499 at 20 uM/ml after 24 hrs by kirby-bauer method; format: functional
Pseudomonas aeruginosa [36] = experiment: Antibacterial activity against Pseudomonas aeruginosa ATCC 15499 at 80 uM/ml after 24 hrs by kirby-bauer method; format: functional; details: ATCC 15499, 24 h, read-out: IZ
[37] = Salmonella enterica, ATCC 23564, 24 h, read-out: IZ
[38] = Salmonella enterica subsp. enterica serovar Typhimurium

## COc1cc(/C=C/C(=O)C2=C(/C=C/c3ccc(O)c(OC)c3)NC(=S)NC2c2ccc(Cl)cc2)ccc1O (stereo not given)
Staphylococcus aureus [1]
  zone of inhibition at 80 µM: 13 mm
HCT-116
  IC50: 50 uM/ml
Trichoderma viride [2]
  zone of inhibition at 160 µM: 24 mm
Escherichia coli [3]; ATCC 35218, 24 h, read-out: IZ
  zone of inhibition at 40 µM: 9 mm
Aspergillus flavus [4]
  inhibition zone (IZ): inactive
Curvularia lunata [5]
  zone of inhibition at 40 µM: 12 mm
[6]
  zone of inhibition at 40 µM: 9 mm
Staphylococcus aureus [7]
  zone of inhibition at 20 µM: 9 mm
Escherichia coli [8]
  inhibition zone (IZ): inactive
Staphylococcus aureus [9]
  zone of inhibition at 40 µM: 11 mm
Aspergillus niger [10]
  inhibition zone (IZ): inactive
Salmonella typhimurium [11]
  zone of inhibition at 160 µM: 22 mm
Trichoderma viride [12]
  zone of inhibition: 19 mm
Trichoderma viride [13]; MTCC 1107, 48 h, read-out: IZ
  zone of inhibition at 20 µM: 18 mm
Salmonella typhimurium [14]; [37]
  zone of inhibition at 40 µM: 17 mm
Pseudomonas aeruginosa [15]
  inhibition zone (IZ): inactive
HepG2
  IC50: 100 uM/ml
[16]
  inhibition zone (IZ): inactive
Aspergillus niger [17]; MTCC 1108, 48 h, read-out: IZ
  zone of inhibition at 80 µM: 9 mm
Aspergillus flavus [18]
  inhibition zone (IZ): inactive
[19]
  zone of inhibition at 160 µM: 16 mm
Aspergillus niger [20]
  zone of inhibition at 160 µM: 11 mm
Curvularia lunata [21]
  zone of inhibition at 80 µM: 13 mm
Aspergillus flavus [22]
  inhibition zone (IZ): inactive
Aspergillus niger [23]
  inhibition zone (IZ): inactive
Staphylococcus aureus [24]
  zone of inhibition at 160 µM: 16 mm
[25]
  zone of inhibition at 80 µM: 12 mm
Trichoderma viride [26]
  zone of inhibition at 80 µM: 22 mm
Escherichia coli [27]
  zone of inhibition at 80 µM: 15 mm
Curvularia lunata [28]
  zone of inhibition at 160 µM: 15 mm
Escherichia coli [29]
  zone of inhibition at 160 µM: 19 mm
Aspergillus flavus [30]
  zone of inhibition at 160 µM: 9 mm
Salmonella typhimurium [31]
  zone of inhibition at 80 µM: 19 mm
Curvularia lunata [32]; MTCC 581, 48 h, read-out: IZ
  zone of inhibition at 20 µM: 9 mm
Salmonella typhimurium [33]; [37]
  zone of inhibition at 20 µM: 13 mm
QG-56
  IC50: 100 uM/ml

## COc1cc(/C=C/C(=O)C2=C(/C=C/c3ccc(O)c(OC)c3)NC(=O)NC2c2ccccc2)ccc1O (stereo not given)
Staphylococcus aureus [1]
  zone of inhibition at 80 µM: 19 mm
HCT-116
  IC50: 25 uM/ml
Trichoderma viride [2]
  zone of inhibition at 160 µM: 14 mm
Escherichia coli [3]
  inhibition zone (IZ): inactive
Aspergillus flavus [4]
  inhibition zone (IZ): inactive
Curvularia lunata [5]
  zone of inhibition at 40 µM: 9 mm
[6]
  zone of inhibition at 40 µM: 16 mm
Staphylococcus aureus [7]
  zone of inhibition at 20 µM: 14 mm
Escherichia coli [8]
  inhibition zone (IZ): inactive
Staphylococcus aureus [9]
  zone of inhibition at 40 µM: 17 mm
Aspergillus niger [10]
  inhibition zone (IZ): inactive
Salmonella typhimurium [11]
  zone of inhibition at 160 µM: 11 mm
Trichoderma viride [12]
  zone of inhibition: 9 mm
Trichoderma viride [13]
  inhibition zone (IZ): inactive
Salmonella typhimurium [14]; [38]
  inhibition zone (IZ): inactive
Pseudomonas aeruginosa [15]; ATCC 15499, 24 h, read-out: IZ
  zone of inhibition at 160 µM: 14 mm
HepG2
  IC50: 50 uM/ml
[16]; NTCC 10274, 24 h, read-out: IZ
  zone of inhibition at 20 µM: 14 mm
Aspergillus niger [17]
  inhibition zone (IZ): inactive
Aspergillus flavus [18]
  inhibition zone (IZ): inactive
[19]
  zone of inhibition at 160 µM: 19 mm
Aspergillus niger [20]
  zone of inhibition at 160 µM: 9 mm
Pseudomonas aeruginosa [34]
  zone of inhibition at 40 µM: 9 mm
Curvularia lunata [21]
  zone of inhibition at 80 µM: 12 mm
Aspergillus flavus [22]; MTCC 1021, 48 h, read-out: IZ
  zone of inhibition at 80 µM: 9 mm
Aspergillus niger [23]
  inhibition zone (IZ): inactive
Pseudomonas aeruginosa [35]
  inhibition zone (IZ): inactive
Staphylococcus aureus [24]
  zone of inhibition at 160 µM: 22 mm
[25]
  zone of inhibition at 80 µM: 17 mm
Trichoderma viride [26]
  zone of inhibition at 80 µM: 11 mm
Escherichia coli [27]
  zone of inhibition at 80 µM: 9 mm
Curvularia lunata [28]
  zone of inhibition at 160 µM: 18 mm
Pseudomonas aeruginosa [36]
  zone of inhibition at 80 µM: 12 mm
Escherichia coli [29]
  zone of inhibition at 160 µM: 17 mm
Aspergillus flavus [30]
  zone of inhibition at 160 µM: 11 mm
Salmonella typhimurium [31]
  zone of inhibition at 80 µM: 8 mm
Curvularia lunata [32]
  inhibition zone (IZ): inactive
Salmonella typhimurium [33]; [38]
  inhibition zone (IZ): inactive
QG-56
  IC50: 50 uM/ml
